# Measurements published in patent US20200131156A1, “ARYLSULFONYLPYROLECARBOXAMIDE DERIVATIVES AS Kv3 POTASSIUM CHANNEL ACTIVATORS” (H. Lundbeck A/S, priority 2018, published 2020).
# Biological target: T1, hKv3.1b (Homo sapiens, UniProt P48547)
# T1 construct: expressed in transfected cells
# T1 sequence (P48547 1-585 isoform P48547-2): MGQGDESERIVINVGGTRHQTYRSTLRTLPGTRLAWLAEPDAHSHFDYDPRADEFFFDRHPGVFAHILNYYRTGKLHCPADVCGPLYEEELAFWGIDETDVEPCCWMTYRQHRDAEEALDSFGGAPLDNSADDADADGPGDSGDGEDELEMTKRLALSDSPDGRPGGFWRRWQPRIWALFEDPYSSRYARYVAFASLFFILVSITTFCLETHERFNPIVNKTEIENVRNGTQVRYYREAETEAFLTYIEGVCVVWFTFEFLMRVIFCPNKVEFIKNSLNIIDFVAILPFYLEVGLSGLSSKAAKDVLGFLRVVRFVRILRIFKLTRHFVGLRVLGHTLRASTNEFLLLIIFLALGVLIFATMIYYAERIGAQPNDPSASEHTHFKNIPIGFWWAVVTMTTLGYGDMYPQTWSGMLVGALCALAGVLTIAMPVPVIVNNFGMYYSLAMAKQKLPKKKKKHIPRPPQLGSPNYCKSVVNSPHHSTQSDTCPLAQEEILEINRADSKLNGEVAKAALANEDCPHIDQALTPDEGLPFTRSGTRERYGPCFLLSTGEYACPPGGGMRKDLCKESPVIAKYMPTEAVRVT
# Assay: Automated patch clamp (QPatch-16x) on HEK-293 cells stably expressing hKv3.1b
# Assay type: cell-based
# Settings: for ECdelta5 mV: concentration needed to shift the activation threshold 5 mV; for Threshold Shift: maximum absolute hyperpolarizing shift of activation threshold at tested concentrations 0.37-30 μM
# In short: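 Whole-cell automated patch clamp, extracellular pH 7.4, 4 mM Na2ATP intracellular; holding −80 mV, 200 ms steps −70 to +10 mV. Five ascending concentrations (0.37–30 μM) per cell, ~3 min each, 0.33% DMSO vehicle. Activation threshold (5% of vehicle peak at 10 mV) shift fitted sigmoidally; ECdelta5 mV read from curve.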
Structure (SMILES),ECdelta5 mV [nM],Threshold Shift [mV]
"Cc1cnc(CNC(=O)c2ccn(S(=O)(=O)c3ccc(C(F)F)cc3)c2)cn1 [Compound 93, 1-[4-(difluoromethyl)benzene-1-sulfonyl]-N-[(5-methylpyrazin-2-yl)methyl]-1H-pyrrole-3-carboxamide]",1500,34
"Cc1ccc(S(=O)(=O)n2ccc(C(=O)NCc3cnc(C)cn3)c2)c(F)c1 [Compound 95, 1-(2-fluoro-4-methyl-phenyl)sulfonyl-N-[(5-methylpyrazin-2-yl)methyl]pyrrole-3-carboxamide]",1100,24
"COc1ccc(S(=O)(=O)n2ccc(C(=O)NCc3cnc(C)cn3)c2)c(C)c1 [Compound 98, 1-(4-methoxy-2-methyl-phenyl)sulfonyl-N-[(5-methylpyrazin-2-yl)methyl]pyrrole-3-carboxamide]",710,36
"Cc1cnc(CNC(=O)c2ccn(S(=O)(=O)c3cc(C)c(F)c(C)c3)c2)cn1 [Compound 100, 1-(4-fluoro-3,5-dimethyl-phenyl)sulfonyl-N-[(5-methylpyrazin-2-yl)methyl]pyrrole-3-carboxamide]",4300,15
"Cc1cnc(CNC(=O)c2ccn(S(=O)(=O)c3ccc(F)c(C)c3)c2)cn1 [Compound 101, 1-(4-fluoro-3-methyl-phenyl)sulfonyl-N-[(5-methylpyrazin-2-yl)methyl]pyrrole-3-carboxamide]",2000,23
"Cc1cnc(CNC(=O)c2ccn(S(=O)(=O)c3ccc4c(c3)CCO4)c2)cn1 [Compound 102, 1-(2,3-dihydrobenzofuran-5-ylsulfonyl)-N-[(5-methylpyrazin-2-yl)methyl]pyrrole-3-carboxamide]",1400,32
"COc1ccc(S(=O)(=O)n2ccc(C(=O)NCc3cnc(C)cn3)c2)c(Cl)c1 [Compound 104, 1-(2-chloro-4-methoxy-phenyl)sulfonyl-N-[(5-methylpyrazin-2-yl)methyl]pyrrole-3-carboxamide]",1000,31
"CNc1cnc(CNC(=O)c2ccn(S(=O)(=O)c3ccc(OC(F)F)cc3)c2)cn1 [Compound 107, 1-[4-(difluoromethoxy)benzene-1-sulfonyl]-N-{[5-(methylamino)pyrazin-2-yl]methyl}-1H-pyrrole-3-carboxamide]",1800,36
"Cc1ccc(S(=O)(=O)n2ccc(C(=O)NCc3cnn(C)n3)c2)cc1 [Compound 109, 1-(4-methylbenzene-1-sulfonyl)-N-[(2-methyl-2H-1,2,3-triazol-4-yl)methyl]-1H-pyrrole-3-carboxamide]",1200,29
"Cc1cnc(CNC(=O)c2ccn(S(=O)(=O)c3ccccc3)c2)c(C)n1 [Compound 111, 1-(benzenesulfonyl)-N-[(3,5-dimethylpyrazin-2-yl)methyl]-1H-pyrrole-3-carboxamide]",2900,21
"Cc1cnc(CNC(=O)c2ccn(S(=O)(=O)c3ccccc3)c2)c(Cl)n1 [Compound 113, 1-(benzenesulfonyl)-N-[(3-chloro-5-methylpyrazin-2-yl)methyl]-1H-pyrrole-3-carboxamide]",3500,14
"Cc1ccc(S(=O)(=O)n2ccc(C(=O)NCc3cnc(C)s3)c2)cc1 [Compound 114, 1-(4-methylbenzene-1-sulfonyl)-N-[(2-methyl-1,3-thiazol-5-yl)methyl]-1H-pyrrole-3-carboxamide]",1600,15
"Cc1ccc(S(=O)(=O)n2ccc(C(=O)NCc3cc(C)n[nH]3)c2)cc1 [Compound 116, 1-(4-methylbenzene-1-sulfonyl)-N-[(3-methyl-1H-pyrazol-5-yl)methyl]-1H-pyrrole-3-carboxamide]",2600,25
"COc1ccc(S(=O)(=O)n2ccc(C(=O)NCc3ncc(C)cn3)c2)c(Cl)c1 [Compound 118, 1-(2-chloro-4-methoxybenzene-1-sulfonyl)-N-[(5-methylpyrimidin-2-yl)methyl]-1H-pyrrole-3-carboxamide]",2500,20

# Results, then the molecule that gave them:
ECdelta5 mV [nM],Threshold Shift [mV],Structure (SMILES)
660,23,"Cc1ccc(S(=O)(=O)n2ccc(C(=O)NCc3cnc(Cl)cn3)c2)cc1 [Compound 89, N-[(5-chloropyrazin-2-yl)methyl]-1-(4-methylbenzene-1-sulfonyl)-1H-pyrrole-3-carboxamide]"
1800,20,"Cc1cnc(CNC(=O)c2ccn(S(=O)(=O)c3ccc(C(F)(F)F)cc3)c2)cn1 [Compound 91, N-[(5-methylpyrazin-2-yl)methyl]-1-[4-(trifluoromethyl)benzene-1-sulfonyl]-1H-pyrrole-3-carboxamide]"
3400,12,"Cc1cnc(CNC(=O)c2ccn(S(=O)(=O)c3ccc(F)c(Cl)c3)c2)cn1 [Compound 92, 1-(3-chloro-4-fluorobenzene-1-sulfonyl)-N-[(5-methylpyrazin-2-yl)methyl]-1H-pyrrole-3-carboxamide]"
1100,19,"Cc1ccc(S(=O)(=O)n2ccc(C(=S)NCc3cnc(C)cn3)c2)cc1 [Compound 94, 1-(4-methylbenzene-1-sulfonyl)-N-[(5-methylpyrazin-2-yl)methyl]-1H-pyrrole-3-carbothioamide]"
1300,35,"COc1ccc(S(=O)(=O)n2ccc(C(=O)NCc3cnc(C)cn3)c2)c(F)c1 [Compound 96, 1-(2-fluoro-4-methoxy-phenyl)sulfonyl-N-[(5-methylpyrazin-2-yl)methyl]pyrrole-3-carboxamide]"
3200,18,"COc1ccc(S(=O)(=O)n2ccc(C(=O)NCc3cnc(C)cn3)c2)cc1F [Compound 97, 1-(3-fluoro-4-methoxy-phenyl)sulfonyl-N-[(5-methylpyrazin-2-yl)methyl]pyrrole-3-carboxamide]"
1900,21,"Cc1cnc(CNC(=O)c2ccn(S(=O)(=O)c3c(C)cc(F)cc3C)c2)cn1 [Compound 99, 1-(4-fluoro-2,6-dimethyl-phenyl)sulfonyl-N-[(5-methylpyrazin-2-yl)methyl]pyrrole-3-carboxamide]"
720,24,"Cc1cc(C)c(S(=O)(=O)n2ccc(C(=O)NCc3cnc(C)cn3)c2)c(C)c1 [Compound 103, N-[(5-methylpyrazin-2-yl)methyl]-1-(2,4,6-trimethylphenyl)sulfonyl-pyrrole-3-carboxamide]"
1200,24,"COc1ccc(S(=O)(=O)n2ccc(C(=O)NCc3cnc(C)cn3)c2)c(Br)c1 [Compound 105, 1-(2-bromo-4-methoxy-phenyl)sulfonyl-N-[(5-methylpyrazin-2-yl)methyl]pyrrole-3-carboxamide]"
550,42,"CNc1cnc(CNC(=O)c2ccn(S(=O)(=O)c3ccc(C)cc3F)c2)cn1 [Compound 106, 1-(2-fluoro-4-methylbenzene-1-sulfonyl)-N-{[5-(methylamino)pyrazin-2-yl]methyl}-1H-pyrrole-3-carboxamide]"
1300,24,"COc1ncc(CNC(=O)c2ccn(S(=O)(=O)c3ccc(C)cc3F)c2)cn1 [Compound 110, 1-(2-fluoro-4-methylbenzene-1-sulfonyl)-N-[(2-methoxypyrimidin-5-yl)methyl]-1H-pyrrole-3-carboxamide]"
4100,17,"COc1ncc(CNC(=O)c2ccn(S(=O)(=O)c3ccc(OC(F)F)cc3)c2)cn1 [Compound 112, 1-[4-(difluoromethoxy)benzene-1-sulfonyl]-N-[(2-methoxypyrimidin-5-yl)methyl]-1H-pyrrole-3-carboxamide]"
2800,17,"Cc1ccc(S(=O)(=O)n2ccc(C(=O)NCc3nnc(C)s3)c2)cc1 [Compound 115, 1-(4-methylbenzene-1-sulfonyl)-N-[(5-methyl-1,3,4-thiadiazol-2-yl)methyl]-1H-pyrrole-3-carboxamide]"
1500,21,"COc1ccc(S(=O)(=O)n2ccc(C(=O)NCc3ccn(C)n3)c2)c(Cl)c1 [Compound 117, 1-(2-chloro-4-methoxybenzene-1-sulfonyl)-N-[(1-methyl-1H-pyrazol-3-yl)methyl]-1H-pyrrole-3-carboxamide]"
